Measured values: paper PMC5581131, “The novel sphingosine-1-phosphate receptors antagonist AD2900 affects lymphocyte activation and inhibits T-cell entry into the lymph nodes” (Oncotarget, 2017)

Biological target: T1, S1P4 (Homo sapiens, UniProt O95977)
T1 construct: Tango fusion partner (protease site + GAL4-VP16 transcription factor); expressed in transfected cells; host or cells: Tango S1P4 (EDG6)-bla U-2 OS cells
T1 sequence (O95977 1-384): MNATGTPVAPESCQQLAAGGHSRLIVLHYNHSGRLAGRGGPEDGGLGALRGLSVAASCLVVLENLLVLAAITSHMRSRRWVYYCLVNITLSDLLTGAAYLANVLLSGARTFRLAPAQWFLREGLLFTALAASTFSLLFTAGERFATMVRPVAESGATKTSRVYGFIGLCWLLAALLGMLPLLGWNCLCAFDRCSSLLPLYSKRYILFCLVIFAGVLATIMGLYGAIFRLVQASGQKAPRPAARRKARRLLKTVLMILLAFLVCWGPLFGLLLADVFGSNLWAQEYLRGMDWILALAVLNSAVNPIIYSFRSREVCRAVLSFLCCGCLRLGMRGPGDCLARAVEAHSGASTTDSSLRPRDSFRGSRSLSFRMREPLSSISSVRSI
Assay: S1P4 antagonist test, Tango S1P4 (EDG6)-bla U-2 OS cells
Type: cell-based
Details: S1P4 TANGO U-2 OS cell line
Method: Since AD2900 is a sphingolipid analogue with properties that resemble those of S1P, we intended to examine its ability to interact with the S1P receptors. To delineate whether AD2900 can function as an agonistic or antagonistic compound to any of the S1P receptors, we used a high-throughput screening cell-based assay, employing cell lines stably transfected with human S1P receptors 1, 2, 3, 4, or 5 [37]. In this experiment, a compound with an IC50 or EC50 value ≤10 μM for a certain S1P receptor is considered active as an antagonist or an agonist, respectively. The results illustrate that AD2900 acts as an antagonist to all S1P receptors (Table 1, Supplementary Figure 3). […] No agonist activation was evident.
The S1P1 agonist test and S1P2, S1P3, S1P4, and S1P5 agonist and antagonist tests were conducted as previously described using S1P1 CRE-bla CHO cells, S1P2 CRE-bla CHO cells, S1P3 NFAT-bla CHO cells, Tango™ S1P4 (EDG6)-bla U-2 OS cells, and Tango™ S1P5 ([…])-bla U-2 OS cells. The S1P1 antagonist assay was carried out according to the manufacturer’s instructions using a Tango™ S1P1 (EDG1)-bla U-2 OS Cell-Based Assay (Invitrogen, NY, USA).

## CCCCCCCCCCCCCCCCNC(CO)(CO)CO [AD2900]
  IC50: 5.9 µM
